Reference: US10500195B2, “Antibacterial compounds” (WOCKHARDT LIMITED, priority 2017, dated 2019)
Values after ≈ are worked out from the molar mass of the structure shown.

Tests used:
[1] = system: E. coli strain M50 (CMY, DHA); assay: Time-dependent bacterial kill study; type: cell-based; conditions: initial count 7.18 log10 CFU/ml
Procedure: In these studies, the initial bacterial count (at 0 hours) was 7.18 log10 CFU/ml. In general, 1, 2 and 3 log bacterial kill over initial count corresponds to […] bactericidal effect. In a typical time-dependent bacterial kill studies, freshly grown bacterial cultures were diluted to target cell density (initial starting inoculum) in Cation adjusted Muller Hinton broth medium (BD, USA). The antibacterial agents (either alone or in combination) at the required concentrations were added into the culture-containing medium. The sample flasks were incubated under shaking condition (120 rpm) at 37° C. Enumeration of viable bacterial count was undertaken periodically by diluting the sample in normal saline and plating on to the Tryptic Soya Agar plates (BD, USA). The plates were incubated for 24 hours to estimate viable bacterial count. The results are expressed in terms of Log10 CFU per ml.

K. pneumoniae H521 = assay: Antibacterial activity (MIC), agar dilution per CLSI; type: cell-based; conditions: Klebsiella pneumoniae
Procedure: (§1) The biological activity of representative compounds according to the invention against various bacterial strains was investigated. In a typical study, overnight grown bacterial cultures were diluted appropriately and inoculated on the agar media containing doubling dilutions of the test compounds. Observation for growth or no growth was performed after 16-20 hours of incubation at 35±2° C. in ambient air. The overall procedure was performed as per Clinical and Laboratory Standards Institute (CLSI) recommendations (Clinical and Laboratory Standards Institute (CLSI), Performance Standards for Antimicrobial Susceptibility Testing, 20th Informational Supplement, M 100-S20, Volume 30, No. 1, 2010).

E. coli 13352 = assay: as above; type: cell-based; conditions: Escherichia coli
Procedure: as §1

E. coli M 50 = assay: as above; type: cell-based; conditions: Escherichia coli, M50
Procedure: as §1

K. pneumoniae H525 = assay: as above; type: cell-based; conditions: Klebsiella pneumoniae
Procedure: as §1

E. coli M 36 = assay: as above; type: cell-based; conditions: Escherichia coli, M36
Procedure: as §1

E. coli M 138 = assay: as above; type: cell-based; conditions: Escherichia coli, M138
Procedure: as §1

E. coli M 49 = assay: as above; type: cell-based; conditions: Escherichia coli, M49
Procedure: as §1

E. coli 7MP = assay: as above; type: cell-based; conditions: Escherichia coli
Procedure: as §1

E. coli 13353 = assay: as above; type: cell-based; conditions: Escherichia coli
Procedure: as §1

[2] = system: K. pneumoniae ATCC 700603; assay: as above; type: cell-based; conditions: Klebsiella pneumoniae, ATCC700603
Procedure: as §1

K. pneumoniae H523 = assay: as above; type: cell-based; conditions: Klebsiella pneumoniae
Procedure: as §1

K. pneumoniae H522 = assay: as above; type: cell-based; conditions: Klebsiella pneumoniae
Procedure: as §1

E. coli 13351 = assay: as above; type: cell-based; conditions: Escherichia coli
Procedure: as §1

[3] = 2 hours, antibacterial agent alone 8 μg/ml
[4] = 4 hours, antibacterial agent alone 8 μg/ml
[5] = 6 hours, antibacterial agent alone 8 μg/ml
[6] = 8 hours, antibacterial agent alone 8 μg/ml

MIC (K. pneumoniae H521) | MIC (E. coli 13352) | MIC (E. coli M 50) | MIC (K. pneumoniae H525) | MIC (E. coli M 36) | MIC (E. coli M 138) | MIC (E. coli M 49) | MIC (E. coli 7MP) | MIC (E. coli 13353) | MIC [2] | MIC (K. pneumoniae H523) | MIC (K. pneumoniae H522) | MIC (E. coli 13351) | melting point | SMILES | Bacterial count [1, 3] | Bacterial count [1, 4] | Bacterial count [1, 5] | Bacterial count [1, 6] | further results
 |  |  |  |  |  |  |  |  |  |  |  |  |  | C=CC1=C(C(=O)O)N2C(=O)[C@@H](NC(=O)/C(=N\OCC(=O)O)c3csc(N)n3)[C@H]2SC1 [Cefixime] | 7.85 Log10 CFU per ml | 8.90 Log10 CFU per ml | 8.78 Log10 CFU per ml | 9.04 Log10 CFU per ml | 
 |  |  |  |  |  |  |  |  |  |  |  |  |  | Nc1nc(/C(=C/CC(=O)O)C(=O)N[C@@H]2C(=O)N3C(C(=O)O)=CCS[C@H]23)cs1 [Ceftibuten] | 7.98 Log10 CFU per ml | 8.30 Log10 CFU per ml | 8.74 Log10 CFU per ml | 9.48 Log10 CFU per ml | 
4 µg/mL (≈ 10.5 µM) | 2 µg/mL (≈ 5.23 µM) | 2 µg/mL (≈ 5.23 µM) | 4 µg/mL (≈ 10.5 µM) | 1 µg/mL (≈ 2.62 µM) | 2 µg/mL (≈ 5.23 µM) | 4 µg/mL (≈ 10.5 µM) | 2 µg/mL (≈ 5.23 µM) | 1 µg/mL (≈ 2.62 µM) | > 32 µg/mL | 4 µg/mL (≈ 10.5 µM) | 4 µg/mL (≈ 10.5 µM) | 1 µg/mL (≈ 2.62 µM) | 160 to 163 °C (dec.) | O=C(NOC[C@@H]1C[C@@H](F)CN1)[C@@H]1CC[C@@H]2CN1C(=O)N2OS(=O)(=O)O [Example 2, (2S, 5R)-N-{[(2S, 4R)-4-fluoropyrrolidin-2-yl]methyloxy}-7-oxo-6-(sulfooxy)-1,6-diazabicyclo[3.2.1]octane-2-carboxamide] |  |  |  |  | 
1 µg/mL (≈ 2.62 µM) | 1 µg/mL (≈ 2.62 µM) | 0.5 µg/mL (≈ 1.31 µM) | 0.5 µg/mL (≈ 1.31 µM) | 0.25 µg/mL (≈ 0.654 µM) | 0.5 µg/mL (≈ 1.31 µM) | 4 µg/mL (≈ 10.5 µM) | 1 µg/mL (≈ 2.62 µM) | 0.5 µg/mL (≈ 1.31 µM) | > 32 µg/mL | 1 µg/mL (≈ 2.62 µM) | 1 µg/mL (≈ 2.62 µM) | 0.5 µg/mL (≈ 1.31 µM) | 180 to 183 °C (dec.) | O=C(NOC[C@@H]1C[C@H](F)CN1)[C@@H]1CC[C@@H]2CN1C(=O)N2OS(=O)(=O)O [Example 1, (2S, 5R)-N-{[(2S, 4S)-4-fluoropyrrolidin-2-yl]methyloxy}-7-oxo-6-(sulfooxy)-1,6-diazabicyclo[3.2.1]octane-2-carboxamide] |  |  |  |  | Bacterial count ([1]; 2 hours, Compound of Formula (Ia) alone 4 μg/ml): 7.78 Log10 CFU per ml; Bacterial count ([1]; 4 hours, Compound of Formula (Ia) alone 4 μg/ml): 6.74 Log10 CFU per ml; Bacterial count ([1]; 6 hours, Compound of Formula (Ia) alone 4 μg/ml): 5.85 Log10 CFU per ml; Bacterial count ([1]; 8 hours, Compound of Formula (Ia) alone 4 μg/ml): 6.13 Log10 CFU per ml
 |  |  |  |  |  |  |  |  |  |  |  |  |  | COCC1=C(C(=O)O)N2C(=O)[C@@H](NC(=O)/C(=N\OC)c3csc(N)n3)[C@H]2SC1 [Cefpodoxime] | 7.95 Log10 CFU per ml | 8.70 Log10 CFU per ml | 8.95 Log10 CFU per ml | 9.30 Log10 CFU per ml | 
 |  |  |  |  |  |  |  |  |  |  |  |  |  | CO/N=C(\C(=O)N[C@@H]1C(=O)N2C(C(=O)[O-])=C(C[N+]3(C)CCCC3)CS[C@H]12)c1csc(N)n1 [Cefepime] | 7.85 Log10 CFU per ml | 8.65 Log10 CFU per ml | 8.90 Log10 CFU per ml | 9.0 Log10 CFU per ml | 
 |  |  |  |  |  |  |  |  |  |  |  |  |  | CC(C)(O/N=C(\C(=O)N[C@@H]1C(=O)N2C(C(=O)[O-])=C(C[n+]3ccccc3)CS[C@H]12)c1csc(N)n1)C(=O)O [Ceftazidime] | 7.81 Log10 CFU per ml | 8.90 Log10 CFU per ml | 9.0 Log10 CFU per ml | 8.92 Log10 CFU per ml | 
4 µg/mL (≈ 10.5 µM) | 4 µg/mL (≈ 10.5 µM) | 2 µg/mL (≈ 5.23 µM) | 2 µg/mL (≈ 5.23 µM) | 1 µg/mL (≈ 2.62 µM) | 2 µg/mL (≈ 5.23 µM) | 4 µg/mL (≈ 10.5 µM) | 4 µg/mL (≈ 10.5 µM) | 1 µg/mL (≈ 2.62 µM) | > 32 µg/mL | 4 µg/mL (≈ 10.5 µM) | 4 µg/mL (≈ 10.5 µM) | 2 µg/mL (≈ 5.23 µM) | 207 to 209 °C (dec.) | O=C(NOC[C@H]1C[C@@H](F)CN1)[C@@H]1CC[C@@H]2CN1C(=O)N2OS(=O)(=O)O [Example 4, (2S, 5R)-N-{[(2R, 4R)-4-fluoropyrrolidin-2-yl]methyloxy}-7-oxo-6-(sulfooxy)-1,6-diazabicyclo[3.2.1]octane-2-carboxamide] |  |  |  |  | 
2 µg/mL (≈ 5.23 µM) | 2 µg/mL (≈ 5.23 µM) | 1 µg/mL (≈ 2.62 µM) | 2 µg/mL (≈ 5.23 µM) | 1 µg/mL (≈ 2.62 µM) | 1 µg/mL (≈ 2.62 µM) | 4 µg/mL (≈ 10.5 µM) | 2 µg/mL (≈ 5.23 µM) | 1 µg/mL (≈ 2.62 µM) | > 32 µg/mL | 2 µg/mL (≈ 5.23 µM) | 2 µg/mL (≈ 5.23 µM) | 1 µg/mL (≈ 2.62 µM) | 175 to 178 °C (dec.) | O=C(NOC[C@H]1C[C@H](F)CN1)[C@@H]1CC[C@@H]2CN1C(=O)N2OS(=O)(=O)O [Example 3, (2S, 5R)-N-{[(2R, 4S)-4-fluoropyrrolidin-2-yl]methyloxy}-7-oxo-6-(sulfooxy)-1,6-diazabicyclo[3.2.1]octane-2-carboxamide] |  |  |  |  | 
